Earlier results on 14 compounds are cited in patent US8338072B2, “Resist composition, resist pattern forming process, and method for manufacturing semiconductor device” (Fujitsu Limited, priority 2006, dated 2012).

What is called pKa is the pH at which an ionisable group is half protonated.

For the first series the following is noted: Table 1, additives 4A to 4F.
As for `CC(O)C(=O)O` (stereo not shown) [Example 4B, Lactic acid], the pKa is listed as 4.57.
In the case of `NCCN` [Example 4D, Ethylenediamine], the pKa is listed as 7.12.
`CCCCCCN` [Example 4E, Hexylamine]: the pKa is on record as 10.85.
Take `CCCCCN` [Example 4F, Pentylamine]: the pKa was 10.93.

The same series, now with this note: values for example additives.
`NCc1ccccc1O` [2-hydroxybenzylamine]: the pKa was 8.63.
Consider `NCCN` [Example 4D, Ethylenediamine], for which the pKa was 7.12.
For `CCCCCN` [Example 4F, Pentylamine], the pKa was 10.93.
Turning to `CCCC(=O)O` [butyric acid], the pKa is 4.57.
In the case of `NC1CCCCC1` [cyclohexylamine], the pKa is 10.62.
Turning to `NC1CCCC1` [cyclopentylamine], the pKa is given as 10.56.
With `c1ccc(Nc2ccccc2)cc1` [diphenylamine], the pKa is 13.65.
For `O=C(O)/C=C/C(=O)O` [fumaric acid], the pKa is given as 3.07.
As for `CCCN` [propylamine], the pKa is reported as 10.93.
Regarding `O=C(O)CCC(=O)O` [succinic acid], the pKa is listed as 3.99.
With `CCCCC(=O)O` [valeric acid], the pKa was 5.17.
Turning to methylpyridine, the pKa is on record as 5.80-6.10.
